Results published in publication PMC7764795, “Physiological Response of Corynebacterium glutamicum to Indole” (Microorganisms, 2020).

What follows are molecules tested against T1, Cg3388 (IhtR) (Corynebacterium glutamicum, UniProt Q8NL89) (assay: EMSA, release of target DNA by effector). Conditions: threshold, not a constant; Cg3388 in 153-fold molar excess over 45 ng cg3388-iolT2 intergenic DNA; pH 7.5, 10 mM MgCl2, room temperature; effector (inducer) of repressor.
T1 construct: gene Cgl3059; Cg3388 with N-terminal His-tag kept (pET16b-cg3388), E. coli BL21(DE3), Ni-NTA
T1 sequence (Q8NL89 1-287): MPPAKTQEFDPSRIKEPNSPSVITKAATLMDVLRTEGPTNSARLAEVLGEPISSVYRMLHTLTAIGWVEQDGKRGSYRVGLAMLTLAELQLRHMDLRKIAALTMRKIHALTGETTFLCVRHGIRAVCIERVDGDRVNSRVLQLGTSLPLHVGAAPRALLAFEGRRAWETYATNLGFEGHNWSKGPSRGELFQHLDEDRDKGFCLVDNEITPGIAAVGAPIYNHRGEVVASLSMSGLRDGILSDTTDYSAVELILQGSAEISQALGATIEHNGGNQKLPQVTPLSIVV
Assay type: binding

Row | SMILES | concentration above which DNA binding is interfered with
1 | Oc1ccc(O)c(O)c1 [1,2,4-trihydroxybenzene] | > 0.05 mM
2 | Oc1ccc(O)cc1 [hydroquinone] | > 0.5 mM
3 | c1ccc2[nH]ccc2c1 [indole] | > 4 mM
